Test system: nitric oxide (NO) content in glutamate-damaged primary cultured rat cortical cells
Test: Measurement of nitrite (Griess reagent), NO content
Format: cell-based
Conditions: compound 1 M (1 μM) for 1 hr before 100 M glutamate, 24 hr
Method: The content of nitrite isolated into culture broth from first cultured cortical cells was assayed by using Griess reagent by Dawson's method (Dawson V L, Brahbhatt H P, Mong J A and Dawson T M (1994) Expression of inducible nitric oxide synthase causes delayed neurotoxicity in primary neuronal-glial cortical cultures. Neuropharmacology 33: 1425-1430).
In case glutamate is treated to first cultured cortical cells of mice, formation of NO is increased. […] When schizandrin is treated at the 1 μM concentration, it decreased NO content increased by glutamate. […] When deoxyschizandrin, gomisin N and wuweizisu C are treated at 1 uM concentration to first cultured cortical cells toxicity-induced by glutamate, those maintained about 50% of normal state activity of GSH-px and glutathione decreased by glutamate and have protective activity on the activity of antioxidant enzymes.
Rat cortical cultures were treated with compounds at the concentration of 1 M for 1 hr before exposure to 100 M glutamate and then maintained for 24 hr. Values given represent the mean SD (n=3).

COc1cc2c(c(OC)c1OC)-c1c(cc(OC)c(OC)c1OC)C[C@](C)(O)[C@@H](C)C2 [schizandrin]
Protection (NO content): 40.2%
